Experimental findings from US20230087118A1, “IMIDAZO[1,2-a][sequence] DERIVATIVES AND THEIR USE IN THE TREATMENT OF DISEASE” (priority 2019, published 2023) are described below.

For the first test, the target named is T1, IRAK4 (Homo sapiens, UniProt Q9NWZ3).
T1 sequence (Q9NWZ3 1-460): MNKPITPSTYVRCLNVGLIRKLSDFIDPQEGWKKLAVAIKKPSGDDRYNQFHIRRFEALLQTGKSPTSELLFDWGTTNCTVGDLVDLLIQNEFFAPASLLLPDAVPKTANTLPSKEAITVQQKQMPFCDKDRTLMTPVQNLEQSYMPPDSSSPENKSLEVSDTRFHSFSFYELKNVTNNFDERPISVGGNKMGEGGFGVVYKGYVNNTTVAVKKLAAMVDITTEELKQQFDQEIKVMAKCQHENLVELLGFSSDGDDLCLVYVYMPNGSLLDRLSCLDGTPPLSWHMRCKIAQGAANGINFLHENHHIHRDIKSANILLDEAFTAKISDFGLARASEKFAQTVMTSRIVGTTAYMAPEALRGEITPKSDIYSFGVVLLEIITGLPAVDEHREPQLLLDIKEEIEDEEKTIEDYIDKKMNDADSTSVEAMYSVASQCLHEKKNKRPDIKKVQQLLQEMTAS
The experiment in a line: biochemical.
Settings: not given
On to `O=C(Nc1cccc(C(F)F)n1)c1cn2cc(C3CC3)nc2cc1OC1CCOC1` (stereo not drawn) [Example 468, 2-Cyclopropyl-N-(6-(difluoromethyl)pyridin-2-yl)-7-((tetrahydrofuran-3-yl)oxy)imidazo[1,2-a]pyridine-6-carboxamide], for which the IC50 came to 0.007 µM.
`CC1(C)CC(Oc2cc3nc(C4CC4)cn3cc2C(=O)Nc2cccc(C(F)F)n2)C1` [Example 472, 2-Cyclopropyl-N-(6-(difluoromethyl)pyridin-2-yl)-7-(3,3-dimethylcyclobutoxy)imidazo[1,2-a]pyridine-6-carboxamide] came in with an IC50 of 0.0064 µM.
On the same count and under the same terms, the figure for `O=C(Nc1cccc(C(F)F)n1)c1cn2cc(C3CC3)nc2cc1OC1CCC1` [Example 474, 7-Cyclobutoxy-2-cyclopropyl-N-(6-(difluoromethyl)pyridin-2-yl)imidazo[1,2-a]pyridine-6-carboxamide] is 0.0007 µM.
Still for that read-out and setting: the figure for `COc1cc2nc(C3CCOCC3)cn2cc1C(=O)Nc1cccn2nccc12` [Example 479, 7-Methoxy-N-(pyrazolo[1,5-a]pyridin-4-yl)-2-(tetrahydro-2H-pyran-4-yl)imidazo[1,2-a]pyridine-6-carboxamide] is 0.0092 µM; for `CCn1cccc(NC(=O)c2cn3cc(C4CC4)nc3cc2OC(C)C)c1=O` [Example 480, 2-Cyclopropyl-N-(1-ethyl-2-oxo-1,2-dihydropyridin-3-yl)-7-isopropoxyimidazo[1,2-a]pyridine-6-carboxamide] it is 0.0075 µM; for `CCOc1cccc(NC(=O)c2cn3cc(C4CC4)nc3cc2OC(C)C)n1` [Example 481, 2-Cyclopropyl-N-(6-ethoxypyridin-2-yl)-7-isopropoxyimidazo[1,2-a]pyridine-6-carboxamide] it is 0.0089 µM.
In turn, `CC(C)Oc1cc2nc(C3CC3)cn2cc1C(=O)Nc1cccc(OCC(F)F)n1` [Example 482, 2-Cyclopropyl-N-(6-(2,2-difluoroethoxy)pyridin-2-yl)-7-isopropoxyimidazo[1,2-a]pyridine-6-carboxamide] came in with an IC50 of 0.0067 µM.
On the same count and under the same terms, the figure for `CC(C)Oc1cc2nc(C3CC3)cn2cc1C(=O)Nc1cccc(CO)n1` [Example 483, 2-Cyclopropyl-N-(6-(hydroxymethyl)pyridin-2-yl)-7-isopropoxyimidazo[1,2-a]pyridine-6-carboxamide] is 0.009 µM; for `CCOc1nc(C(=O)Nc2cc(F)ccc2OC)cn2cc(C34COC(C)(C3)C4)nc12` [Example 484, 8-Ethoxy-N-(5-fluoro-2-methoxyphenyl)-2-(1-methyl-2-oxabicyclo[2.1.1]hexan-4-yl)imidazo[1,2-a]pyrazine-6-carboxamide] it is 0.0073 µM; for `CCOc1nc(C(=O)Nc2cccc(F)c2Cl)cn2cc(C34COC(C)(C3)C4)nc12` [Example 485, N-(2-chloro-3-fluorophenyl)-8-ethoxy-2-(1-methyl-2-oxabicyclo[2.1.1]hexan-4-yl)imidazo[1,2-a]pyrazine-6-carboxamide] it is 0.009 µM.
`CCOc1nc(C(=O)Nc2cccc(OC)n2)cn2cc(C34COC(C)(C3)C4)nc12` [Example 486, 8-Ethoxy-N-(6-methoxypyridin-2-yl)-2-(1-methyl-2-oxabicyclo[2.1.1]hexan-4-yl)imidazo[1,2-a]pyrazine-6-carboxamide] yielded an IC50 of 0.0075 µM.
For the compound `CCOc1nc(C(=O)Nc2cccc(F)c2OC)cn2cc(C34COC(C)(C3)C4)nc12` [Example 487, 8-Ethoxy-N-(3-fluoro-2-methoxyphenyl)-2-(1-methyl-2-oxabicyclo[2.1.1]hexan-4-yl)imidazo[1,2-a]pyrazine-6-carboxamide], it took 0.0027 µM to reach half-maximal inhibition (IC50).
The same measure, in the same setting: in the case of `CCOc1nc(C(=O)Nc2cccc(Cl)c2F)cn2cc(C34COC(C)(C3)C4)nc12` [Example 488, N-(3-chloro-2-fluorophenyl)-8-ethoxy-2-(1-methyl-2-oxabicyclo[2.1.1]hexan-4-yl)imidazo[1,2-a]pyrazine-6-carboxamide] it was 0.0081 µM; in that of `CCOc1nc(C(=O)Nc2cccc3ccnn23)cn2cc(C34COC(C)(C3)C4)nc12` [Example 489, 8-Ethoxy-2-(1-methyl-2-oxabicyclo[2.1.1]hexan-4-yl)-N-(pyrazolo[1,5-a]pyridin-7-yl)imidazo[1,2-a]pyrazine-6-carboxamide], 0.0031 µM.
Compound `CCOc1nc(C(=O)Nc2ccn(C(F)F)n2)cn2cc(C34COC(C)(C3)C4)nc12` [Example 490, N-(1-(difluoromethyl)-1H-pyrazol-3-yl)-8-ethoxy-2-(1-methyl-2-oxabicyclo[2.1.1]hexan-4-yl)imidazo[1,2-a]pyrazine-6-carboxamide] showed an IC50 of 0.0065 µM.
Still for that read-out and setting: in the case of `CCOc1nc(C(=O)Nc2ccc(F)cc2OC)cn2cc(C34COC(C)(C3)C4)nc12` [Example 491, 8-Ethoxy-N-(4-fluoro-2-methoxyphenyl)-2-(1-methyl-2-oxabicyclo[2.1.1]hexan-4-yl)imidazo[1,2-a]pyrazine-6-carboxamide] it was 0.0023 µM; in that of `CCOc1nc(C(=O)Nc2cccnc2OC(F)F)cn2cc(C34COC(C)(C3)C4)nc12` [Example 492, N-(2-(difluoromethoxy)pyridin-3-yl)-8-ethoxy-2-(1-methyl-2-oxabicyclo[2.1.1]hexan-4-yl)imidazo[1,2-a]pyrazine-6-carboxamide], 0.0016 µM.
Same read-out and setting: in the case of `CCOc1nc(C(=O)Nc2cccc(C3CC3)n2)cn2cc(C34COC(C)(C3)C4)nc12` [Example 493, N-(6-cyclopropylpyridin-2-yl)-8-ethoxy-2-(1-methyl-2-oxabicyclo[2.1.1]hexan-4-yl)imidazo[1,2-a]pyrazine-6-carboxamide] it was 0.0032 µM; in that of `CCOc1nc(C(=O)Nc2cccc(C(F)F)c2)cn2cc(C34COC(C)(C3)C4)nc12` [Example 494, N-(3-(difluoromethyl)phenyl)-8-ethoxy-2-(1-methyl-2-oxabicyclo[2.1.1]hexan-4-yl)imidazo[1,2-a]pyrazine-6-carboxamide], 0.0039 µM; in that of `CCOc1nc(C(=O)Nc2cccc(Cl)c2)cn2cc(C34COC(C)(C3)C4)nc12` [Example 495, N-(3-chlorophenyl)-8-ethoxy-2-(1-methyl-2-oxabicyclo[2.1.1]hexan-4-yl)imidazo[1,2-a]pyrazine-6-carboxamide], 0.0088 µM.
`CCOc1nc(C(=O)Nc2cccc(C)c2F)cn2cc(C34COC(C)(C3)C4)nc12` [Example 496, 8-Ethoxy-N-(2-fluoro-3-methylphenyl)-2-(1-methyl-2-oxabicyclo[2.1.1]hexan-4-yl)imidazo[1,2-a]pyrazine-6-carboxamide] returned an IC50 of 0.0047 µM.
With `CCOc1nc(C(=O)Nc2cccc(C(F)(F)F)c2)cn2cc(C34COC(C)(C3)C4)nc12` [Example 497, 8-Ethoxy-2-(1-methyl-2-oxabicyclo[2.1.1]hexan-4-yl)-N-(3-(trifluoromethyl)phenyl)imidazo[1,2-a]pyrazine-6-carboxamide], the IC50 amounted to 0.007 µM.

The same test, now with this note: IRAK4 Biochemical Assay (1 mM ATP, 2 h) IC50 (μM), 1 mM ATP, 2 h, 100 pM IRAK4.
`CN1CCC(Oc2cc3nc(C4CC4)cn3cc2C(=O)Nc2cccc(C(F)F)n2)C1=O` (stereo not drawn) [Example 469, 2-Cyclopropyl-N-(6-(difluoromethyl)pyridin-2-yl)-7-((1-methyl-2-oxopyrrolidin-3-yl)oxy)imidazo[1,2-a]pyridine-6-carboxamide] registered an IC50 of 0.0412 µM.
`O=C(Nc1cccc(C(F)F)n1)c1cn2cc(C3CC3)nc2cc1OCC1CC2CCC1O2` (stereo not drawn) [Example 470, 7-((7-Oxabicyclo[2.2.1]heptan-2-yl)methoxy)-2-cyclopropyl-N-(6-(difluoromethyl)pyridin-2-yl)imidazo[1,2-a]pyridine-6-carboxamide] registered an IC50 of 0.0015 µM.
On the same count and under the same terms, in the case of `O=C(Nc1cccc(C(F)F)n1)c1cn2cc(C3CC3)nc2cc1OCC1CC(F)(F)C1` [Example 471, 2-Cyclopropyl-7-((3,3-difluorocyclobutyl)methoxy)-N-(6-(difluoromethyl)pyridin-2-yl)imidazo[1,2-a]pyridine-6-carboxamide] it was 0.0058 µM; in that of `O=C(Nc1cccc(C(F)F)n1)c1cn2cc(C3CC3)nc2cc1OC1CCOCC1` [Example 473, 2-Cyclopropyl-N-(6-(difluoromethyl)pyridin-2-yl)-7-((tetrahydro-2H-pyran-4-yl)oxy)imidazo[1,2-a]pyridine-6-carboxamide], 0.0064 µM.
Same read-out and setting: the figure for `CC1(COc2cc3nc(C4CC4)cn3cc2C(=O)Nc2cccc(C(F)F)n2)CCOC1` (stereo not drawn) [Example 475, 2-Cyclopropyl-N-(6-(difluoromethyl)pyridin-2-yl)-7-((3-methyltetrahydrofuran-3-yl)methoxy)imidazo[1,2-a]pyridine-6-carboxamide] is 0.0088 µM.
The same measure, in the same setting: the figure for `O=C(Nc1cccc(C(F)F)n1)c1cn2cc(C3CC3)nc2cc1OC1CC(F)(F)C1` [Example 476, 2-Cyclopropyl-7-(3,3-difluorocyclobutoxy)-N-(6-(difluoromethyl)pyridin-2-yl)imidazo[1,2-a]pyridine-6-carboxamide] is 0.0088 µM.
In turn, `O=C(Nc1cccc(C(F)F)n1)c1cn2cc(C3CC3)nc2cc1OC1CC(C(F)F)C1` (stereo not drawn) [Example 477, 2-Cyclopropyl-7-(3-(difluoromethyl)cyclobutoxy)-N-(6-(difluoromethyl)pyridin-2-yl)imidazo[1,2-a]pyridine-6-carboxamide] displayed an IC50 of 0.0011 µM.
For the compound `COc1cccc(NC(=O)c2cn3cc(C4CC4)nc3cc2OCC2CC3CCC2O3)n1` (stereo not drawn) [Example 478, 7-((7-Oxabicyclo[2.2.1]heptan-2-yl)methoxy)-2-cyclopropyl-N-(6-methoxypyridin-2-yl)imidazo[1,2-a]pyridine-6-carboxamide], the IC50 was 0.0055 µM.

As a reminder, the IC50 is the concentration needed to halve the response being measured.
